Data set [1] in a line: in vivo. Details: species or system crab-eating macaques. To be noted: monkey. The source says: (§1) Experimental Purpose: To evaluate the druggability of the compounds by measuring its pharmacokinetic properties in different animal species.
(§2) Experimental materials: CD-1 mice, Sprague-Dawley strain rats, beagle dogs, and crab-eating macaques.
(§3) Drug preparation: An appropriate amount of sample was weighed and then prepared into a clear or suspended solution.
(§4) Experimental procedure: The animal pharmacokinetic characteristics after intravenous injection and oral administration of the compound were tested using a standard protocol. The candidate compound was prepared as a clear solution (for intravenous injection) or a homogeneous suspension (for oral administration) during the experiment and administered to the animals as a single dose. Whole blood samples were collected at 0.083, 0.25, 0.5, 1, 2, 4, 8, and 24 hours, centrifuged at 3200 g for 10 minutes to separate the supernatant to obtain plasma samples. The plasma concentration was quantitatively analyzed by LC-MS/MS analysis method and pharmacokinetic parameters were calculated, such as peak concentration, peak time, clearance rate, half-life, area under the drug-time curve, etc.

Data set [2] has as its system Candida albicans ATCC MYA-4788. The experiment in a line: Mouse Candida vaginal infection model. In kind it is in vivo. To be noted: female C3H/NeH mice, 20 mpk intraperitoneally once a day for 3 days after ABT, CFU at 96 hours of infection, P<0.001. Here is the method: • Experimental animals: female C3H/NeH mice, 6 to 8 weeks old, 19 to 21 g, n=5 to 6; • microbial pathogen: Candida albicans ATCC MYA-4788; • inoculation level and route: 5.0E+05 CFU/mouse, infected by vaginal instillation; • test sample: WX004: 20 mpk
Treatment: ABT was administered orally 22 hours after infection, and the test compound was injected intraperitoneally 24 hours after infection. In this experiment, the Vehicle group and the test compound group were set up, with a total of 3 days of administration, once a day, and a administration volume of 10 mL/kg.
Observation indicators: After 96 hours of infection in each group of mice, the vaginal tissue and vaginal lavage fluid of the mice were taken for CFU counting. Plasma samples were collected at 0.25 h, 0.5 h, 1 h, 2 h, 4 h, 8 h, and 24 h after the last administration.

The test system of data set [3] is Aspergillus fumigatus ATCC-MYA-4609. Kind of data set: Minimum effective concentration (MEC) test against fungi. In kind it is cell-based. To be noted: change of hyphae morphology by microscope, 48 hours, three independent experiments. Here is the method:
(§5) To test the minimum inhibitory concentration (MIC) and minimum effective concentration (MEC) of the drug against fungi.
(§6) Aspergillus fumigatus ATCC-MYA-4609; Aspergillus flavus ATCC MYA-1004
(§7) Test medium: RPMI1640 (containing 0.165 M MOPS, pH7.0)
(§8) On the day of the experiment, the compound in the bottle was dissolved in 100% DMSO to a stock solution concentration of 6.24 mg/mL. Then, the mixture was 10-fold diluted with DMSO to 0.624 mg/mL for use.
(§9) A 2-fold gradient dilution of the compound solution (0.624 mg/mL) was performed using DMSO on a 96-microwell plate (V-bottom) to obtain 100× working solutions (wells 1 to 11). 624, 312, 156, 78, 39, 20, 10, 5, 2.5, 1.25, 0.625 μg/mL. 100% DMSO was used as a positive control (well 12). This was the compound stock plate.
(§10) Aspergillus fumigatus ATCC-MYA-4609; Aspergillus flavus ATCC MYA-1004 frozen at −80° C. were streaked on SDA plates and incubated aerobically in a 30±2° C. incubator for 6 days.
(§11) For strains Aspergillus fumigatus ATCC MYA-4609; Aspergillus flavus ATCC MYA-1004, after taking out the plate, 3 mL of 0.9% normal saline containing 0.1% Tween20 was added to the plate and the spores were gently collected. The spores were counted with a hemocytometer and the spore suspension was adjusted to about 5×10^6 spores/mL. Then the spore suspension was diluted to 0.8 to 1×10^5 spores/mL with a test medium.
(§12) 2 μL of 100× working solution from the compound stock plate (prepared in 3.1) was transferred to a round-bottomed 96-well plate (containing 98 μL of test medium), and then 100 μL of fungus inoculum (prepared in 3.2) was added to each well to obtain a MIC test plate. Therefore, the final test concentrations of the compounds were 6.24, 3.12, 1.56, 0.78, 0.39, 0.20, 0.10, 0.05, 0.025, 0.0125, 0.006 μg/mL. 1% DMSO was used as a growth control.
(§13) For mold strains Aspergillus fumigatus ATCC-MYA-4609 and Aspergillus flavus ATCC MYA-1004, all test plates were incubated aerobically in a 35±° C. incubator for 48 hours.
(§14) After incubation, according to the criteria in Table 1 below, the test plate was observed by eye or microscope to determine the MIC (g/mL) and MEC (g/mL) of the test compound against yeast and mold.

Data set [4] relates to Aspergillus flavus ATCC MYA-1004. The description is as above. Format: cell-based. To be noted: change of hyphae morphology by microscope, 48 hours, three independent experiments. Here is the method: as §5, §6, §7, §8, §9, §10, §11, §12, §13, §14
Data set [5] has as its system Cryptococcus neoformans H99 ATCC 208821. The experiment in a line: Minimum inhibitory concentration (MIC) test against fungi. Format: cell-based. To be noted: Cryptococcus neoformans, ATCC208821, 72 h, ≥50% growth inhibition by eye, three independent experiments, read-out: MIC. Here is the method:
as §5
Cryptococcus neoformans H99 ATCC 208821;
as §7, §8, §9
Cryptococcus neoformans H99 ATCC 208821 frozen at −80° C. was streaked on SDA plates and incubated aerobically in a 35±2° C. incubator for 48 hours.
On the day of the experiment, for strains Candida parapsilosis ATCC 22019, Candida albicans ATCC MYA-2876; Candida albicans WX-CA009; Candida glabrata ATCC15126; Candida tropicalis ATCC 750 and Cryptococcus neoformans H99 ATCC 208821, the plates were taken out and the clones on the plates were picked, suspended in normal saline, and then the turbidity of the fungal suspension was adjusted to OD600=0.2 using a turbidimeter. The fungal suspension contained about 3.0×10^6 CFU/mL. Then the turbidity-adjusted fungal suspension was diluted with a test medium to a concentration of about 3.0×10^3 CFU/mL. This was the inoculum.
as §12
For Cryptococcus neoformans H99 ATCC 208821, all test plates were incubated aerobically in a 35±2° C. incubator for 72 hours.
as §14

Data set [6] is described as follows: Pharmacokinetic evaluation in dogs (IV, PO). Format: in vivo, beagle dogs. To be noted: beagle, plasma, Dog.
Source text: as §1, §2, §3, §4

Setting [7] is: crab-eating macaque (cynomolgus), iv, 0.4 mg/kg.
Where [8] appears, read: crab-eating macaque (cynomolgus), po, 10 mg/kg.

Values after ≈ are worked out from the molar mass of the structure shown. Values joined by “and” are separate entries in the source; they are usually repeats but may differ in a detail not shown here. Identical values can stand only once.

Usually AUC stands for the area under the concentration-time curve, a measure of exposure. Read a low AUC as less exposure. A word on the Cmax: it is the highest concentration seen after dosing. The Tmax is the time from dosing to the highest level. By half-life is commonly meant the time needed for the level to fall by half in the phase considered. Usually bioavailability stands for the share of a dose that reaches the circulation, judged against a reference dose that is usually intravenous. In general, MIC refers to the lowest concentration found to suppress growth.

As for `Nc1ccc(C#CCc2ccc(COc3ccccn3)cc2)cn1` [WX004], in data set [1] (setting [7]), the AUC is 5 µM·h, the Vd was found to be 4.4 L/kg and the clearance worked out at 4.3 mL/min/kg. In addition, in data set [1] (setting [8]), the Cmax is 9 µM and the Tmax amounted to 4 h. Further, in data set [1] (crab-eating macaque, po, 10 mg/kg), the AUC is 72 µM·h. This compound gave a half-life in data set [1] (iv, 0.4 mg/kg) of 3.5 h. The bioavailability in data set [1] (po, 10 mg/kg) is 60%. Besides, in data set [2], the “reduction of fungal load in the vaginal lavage fluid compared with the Vehicle group” value was determined as 2.5 lg and the “reduction of fungal load in the vaginal tissue compared with the Vehicle group” value is recorded as 2.7 lg. The compound also had an MEC in data set [3] of 0.1 µg/mL. Moreover, the MEC in data set [4] was 0.39 µg/mL and 0.78 µg/mL. Moreover, the MIC in data set [5] amounted to 1.56 µg/mL (≈ 4.95 µM). In data set [6] (1 mg/kg, IV, 1 mpk), this compound gave an AUC of 2.8 µM·h, a Vd of 2.8 L/kg, a clearance of 21 mL/min/kg and a half-life of 2.5 h. In addition, in data set [6] (10 mg/kg, PO, 10 mpk), the AUC turned out to be 14 µM·h, the Cmax is 6.5 µM, the Tmax stood at 0.75 h and the bioavailability came to 51%.

(Values after US12492169B2, “Aminopyridine compound and application thereof” (priority 2020, dated 2025).)
